Data as given in ChEMBL document CHEMBL1667851, “Synthesis and pharmacological evaluation of the individual stereoisomers of 3-[methyl(1,2,3,4-tetrahydro-2-naphthalenyl)amino]-1-indanone, a potent mast cell stabilising agent” (Bioorg Med Chem Lett, 2011).

How the values were obtained:
[1] = tested on: Mus musculus; assay: Inhibition of IgE-induced PCA reaction in albino Swiss mouse at 3 mg/kg administered intradermally; assay type: functional; parameters: Activity: scale not given: the % may be the effect or the level left; conditions: for inhibition in vivo at 3 mg/kg: Mus musculus, albino Swiss
[2] = tested on: Mast cell; assay: Inhibition of compound 48/80-induced histamine release in rat peritoneal mast cells; assay type: functional, cell-based
[3] = tested on: Mast cell; assay: Inhibition of A23187-induced histamine release in rat peritoneal mast cells; assay type: functional, cell-based
[4] = tested on: Mast cell; assay: Inhibition of concanavalin A-induced histamine release in rat peritoneal mast cells; assay type: functional, cell-based
[5] = tested on: Mast cell; assay: Inhibition of A23187-induced histamine release in porcine peritoneal mast cells at 20 uM; assay type: functional; conditions: Sus scrofa
[6] = tested on: Mast cell; assay: Inhibition of anti-IgE-induced histamine release in porcine lung mast cells at 20 uM; assay type: functional; conditions: Sus scrofa
[7] = tested on: Mast cell; assay: Inhibition of vancomycin-induced histamine release in rat peritoneal mast cells; assay type: functional, cell-based
[8] = tested on: Mus musculus; assay: Inhibition of IgE-induced PCA reaction in intradermally dosed albino Swiss mouse; assay type: functional, organism-based

| SMILES | IC50 [2] | IC50 [3] | IC50 [4] | IC50 [7] | inhibition in vivo at 3 mg/kg [1] | inhibition at 20 µM [5] | inhibition at 20 µM [6] | Activity [1] | inhibition [8] |
| --- | --- | --- | --- | --- | --- | --- | --- | --- | --- |
| CN(C1CCc2ccccc2C1)C1CC(=O)c2ccccc21 (centres undefined) |  |  |  |  | 83% |  |  |  |  |
| CN([C@H]1CCc2ccccc2C1)[C@H]1CC(=O)c2ccccc21 | 1490 nM | 8.06 µM | 1.6 µM |  | 73% | 40% | 86% |  |  |
| O=C([O-])c1cc(=O)c2c(OCC(O)COc3cccc4oc(C(=O)[O-])cc(=O)c34)cccc2o1.[Na+].[Na+] [CROMOLYN SODIUM] |  |  |  |  |  |  |  | 73% |  |

Further lines, with some results ahead:

| IC50 [2] | IC50 [3] | IC50 [4] | IC50 [7] | SMILES | inhibition in vivo at 3 mg/kg [1] | inhibition at 20 µM [5] | inhibition at 20 µM [6] | Activity [1] | inhibition [8] |
| --- | --- | --- | --- | --- | --- | --- | --- | --- | --- |
| 1510 nM | 4.08 µM | 16.9 µM | 4.47 µM | CN([C@@H]1CCc2ccccc2C1)[C@H]1CC(=O)c2ccccc21 | 111% | 31% | 53% |  | Dose-dependent effect |
| 2180 nM | 6.97 µM | 1.6 µM | 12.6 µM | CN([C@H]1CCc2ccccc2C1)[C@@H]1CC(=O)c2ccccc21 | 68% | 48% | 81% |  |  |
| 3030 nM | 9.48 µM | 13.1 µM |  | CN([C@@H]1CCc2ccccc2C1)[C@@H]1CC(=O)c2ccccc21 | 77% | 22% | 89% |  |  |
